Converted amounts (≈) assume the structure as drawn. Values belong to the compound of their own block, whether it stands above or below them. Where a SMILES comes first, the peptide text is derived from it. The star is where a group is joined. βNA = c1ccc2cc(N*)ccc2c1
How the values were obtained:
[1] = system: Enterobacter; assay: Antibacterial activity against ESBL/KPC-producing Enterobacter assessed as potentiation of aztreonam induced-antimicrobial activity by measuring aztreonam MIC (Rvb > 16 ug/ml); assay type: functional
[2] = Inhibition of Escherichia coli PBP2
[3] = system: Staphylococcus epidermidis; assay: Antibacterial activity against planktonic Staphylococcus epidermidis RP62A after 24 hrs by broth microdilution method; assay type: functional
[4] = system: Staphylococcus aureus; assay: Antibacterial activity against planktonic Staphylococcus aureus ATCC 43866 after 24 hrs by broth microdilution method; assay type: functional; conditions: ATCC 43866, 24 h
[5] = system: Staphylococcus aureus; assay: Antibacterial activity against planktonic Staphylococcus aureus ATCC 29213 after 24 hrs by broth microdilution method; assay type: functional; conditions: ATCC 29213, 24 h
[6] = system: Staphylococcus epidermidis; assay: Inhibition of biofilm formation in Staphylococcus epidermidis DSM 3269 at 1.5 ug/ml after 24 hrs by MTT assay; assay type: functional; conditions: DSM 3269, 24 h
[7] = system: Staphylococcus aureus; assay: Inhibition of biofilm formation in Staphylococcus aureus ATCC 29213 at 1.5 ug/ml after 24 hrs by MTT assay; assay type: functional; conditions: ATCC 29213, 24 h
[8] = system: Staphylococcus aureus; assay: Inhibition of biofilm formation in Staphylococcus aureus ATCC 657 at 1.5 ug/ml after 24 hrs by MTT assay; assay type: functional; conditions: ATCC 657, 24 h
[9] = system: Staphylococcus aureus; assay: Inhibition of biofilm formation in Staphylococcus aureus ATCC 702 at 1.5 ug/ml after 24 hrs by MTT assay; assay type: functional; conditions: ATCC 702, 24 h
[10] = system: Staphylococcus epidermidis; assay: Inhibition of biofilm formation in Staphylococcus epidermidis RP62A at 1.5 ug/ml after 24 hrs by MTT assay; assay type: functional
[11] = system: Staphylococcus aureus; assay: Inhibition of biofilm formation in Staphylococcus aureus ATCC 25923 at 1.5 ug/ml after 24 hrs by MTT assay; assay type: functional; conditions: ATCC 25923, 24 h
[12] = system: Escherichia coli; assay: Antibacterial activity against multi drug-resistant Escherichia coli KG1 after 24 hrs by serial dilution method; assay type: functional; conditions: KG1, 24 h
[13] = system: Escherichia coli; assay: Antibacterial activity against multi drug-resistant Escherichia coli EM7 mutant after 24 hrs by serial dilution method; assay type: functional
[14] = system: Escherichia coli; assay: Antibacterial activity against multi drug-sensitive Escherichia coli MTCC 739 after 24 hrs by serial dilution method; assay type: functional; conditions: MTCC 739, 24 h
[15] = system: Escherichia coli; assay: Antibacterial activity against multi drug-resistant Escherichia coli EM5 mutant after 24 hrs by serial dilution method; assay type: functional
[16] = system: Escherichia coli; assay: Antibacterial activity against multi drug-resistant Escherichia coli KG4 after 24 hrs by serial dilution method; assay type: functional; conditions: KG4, 24 h
[17] = system: Staphylococcus aureus; assay: Inhibition of biofilm formation in Staphylococcus aureus ATCC 43866 at 25 ug/ml after 24 hrs by MTT assay; assay type: functional; conditions: ATCC 43866, 24 h
[18] = Inhibition of bacterial AmpC; set-up: species or system Bacteria
[19] = system: Escherichia coli; assay: Potentiation of cefotaxime induced-antimicrobial activity against Escherichia coli (reference value: 8 to 128 ug/ml); assay type: functional
[20] = system: Pseudomonas aeruginosa; assay: Inhibition of Pseudomonas aeruginosa MexAB-Oprm assessed as potentiation of levofloxacin-induced antibacterial activity at 50 ug/ml (reference value: 16 ug/ml)
[21] = system: Pseudomonas aeruginosa; assay: Inhibition of Pseudomonas aeruginosa MexAB-Oprm assessed as potentiation of ciprofloxacin-induced antibacterial activity at 50 ug/ml (reference value: 16 ug/ml)
[22] = system: Escherichia coli; assay: Potentiation of tetracycline induced-antimicrobial activity against Escherichia coli assessed as fold reduction in tetracycline MIC at 25 ug/ml after 24 hrs by broth checkerboard method; assay type: functional
[23] = Inhibition of bacterial IMP-1 using nitrocefin as substrate; set-up: species or system Bacteria
[24] = Inhibition of Klebsiella pneumoniae NP6 KPC-2 expressed in Escherichia coli DH5alpha
[25] = system: Staphylococcus aureus; assay: Antibiofilm activity against methicillin-resistant Staphylococcus aureus BAA-44 after 24 hrs by crystal violet staining based assay; assay type: functional; conditions: BAA-44, 24 h
[26] = system: Staphylococcus aureus; assay: Antibiofilm activity against methicillin-resistant Staphylococcus aureus BAA-44 at 100 uM after 24 hrs by crystal violet staining based assay; assay type: functional; conditions: BAA-44, 24 h
[27] = target: T1, Quinolone resistance protein NorA (Staphylococcus aureus) (UniProt P0A0J7); assay: Inhibition of Staphylococcus aureus 1199B NorA assessed as potentiation of ciprofloxacin-induced antibacterial activity at 2 ug/ml after 24 hrs
T1 sequence (whole entry): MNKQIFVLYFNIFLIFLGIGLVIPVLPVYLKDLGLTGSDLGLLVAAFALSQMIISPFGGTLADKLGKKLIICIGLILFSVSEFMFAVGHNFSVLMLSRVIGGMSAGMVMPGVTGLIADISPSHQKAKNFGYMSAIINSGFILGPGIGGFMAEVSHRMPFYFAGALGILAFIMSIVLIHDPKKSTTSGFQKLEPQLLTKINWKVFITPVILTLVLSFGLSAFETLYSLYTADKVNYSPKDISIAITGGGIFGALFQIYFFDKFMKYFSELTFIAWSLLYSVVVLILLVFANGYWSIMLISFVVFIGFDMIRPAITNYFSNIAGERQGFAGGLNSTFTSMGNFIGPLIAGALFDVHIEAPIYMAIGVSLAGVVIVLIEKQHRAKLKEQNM

[28] = target: T1, Quinolone resistance protein NorA (Staphylococcus aureus); assay: Inhibition of Staphylococcus aureus 1199B NorA assessed as potentiation of ciprofloxacin-induced antibacterial activity at 0.5 ug/ml after 24 hrs
[29] = system: Staphylococcus aureus; assay: Antibacterial activity against Staphylococcus aureus ATCC 25923 after 24 hrs by broth microdilution method; assay type: functional; conditions: ATCC 25923, 24 h
[30] = system: Staphylococcus aureus; assay: Antibacterial activity against Staphylococcus aureus 1199B after 24 hrs by broth microdilution method; assay type: functional

MIC [1]: < 4 µg/mL | IC50 [2]: 63 µM
SMILES: NC(=O)[C@@H]1CC[C@@H]2CN1C(=O)N2OS(=O)(=O)[O-].[Na+] [AVIBACTAM SODIUM]

MIC [3]: 1.5 to 12.5 µg/mL (≈ 4.84 to 40.3 µM) | MIC [4]: 1.5 to 12.5 µg/mL (≈ 4.84 to 40.3 µM) | MIC [5]: 1.5 to 12.5 µg/mL (≈ 4.84 to 40.3 µM)
SMILES: Cc1nn(C)c([N-]C(=O)c2ccc(Cl)cc2Cl)c1[N+]#N

SMILES: O=C(c1cc(Cl)cc(Cl)c1O)c1[nH]c(Cl)c(Cl)c1Cl
inhibition at 1.5 µg/mL [6]: > 60% | inhibition at 1.5 µg/mL [7]: > 60% | inhibition at 1.5 µg/mL [8]: > 60% | inhibition at 1.5 µg/mL [9]: > 60% | inhibition at 1.5 µg/mL [10]: > 60% | inhibition at 1.5 µg/mL [11]: > 60%

SMILES: CCCCCCCCCCCCCC(=O)O[C@H]1CCC(=O)c2ccccc21 [4-O-MYRICITOYL-ALPHA-TETRALONE]
MIC [12]: 250 to 1000 µg/mL (≈ 671 to 2680 µM) | MIC [13]: 250 to 1000 µg/mL (≈ 671 to 2680 µM) | MIC [14]: 250 to 1000 µg/mL (≈ 671 to 2680 µM) | MIC [15]: 250 to 1000 µg/mL (≈ 671 to 2680 µM) | MIC [16]: 250 to 1000 µg/mL (≈ 671 to 2680 µM)

SMILES: O=C(c1cc(Br)ccc1O)c1[nH]c(Cl)c(Br)c1Br
inhibition at 1.5 µg/mL [6]: > 60% | inhibition at 1.5 µg/mL [7]: > 60% | inhibition at 1.5 µg/mL [8]: > 60% | inhibition at 1.5 µg/mL [9]: > 60% | inhibition at 1.5 µg/mL [10]: > 60% | inhibition at 1.5 µg/mL [11]: > 60%

SMILES: O=C(/C=C/c1ccccc1)O[C@H]1CCC(=O)c2ccccc21
MIC [12]: 250 to 1000 µg/mL (≈ 855 to 3420 µM) | MIC [13]: 250 to 1000 µg/mL (≈ 855 to 3420 µM) | MIC [14]: 250 to 1000 µg/mL (≈ 855 to 3420 µM) | MIC [15]: 250 to 1000 µg/mL (≈ 855 to 3420 µM) | MIC [16]: 250 to 1000 µg/mL (≈ 855 to 3420 µM)

MIC [3]: 1.5 to 12.5 µg/mL (≈ 5.44 to 45.3 µM) | MIC [4]: 1.5 to 12.5 µg/mL (≈ 5.44 to 45.3 µM) | MIC [5]: 1.5 to 12.5 µg/mL (≈ 5.44 to 45.3 µM)
SMILES: Cc1nn(C)c([N-]C(=O)c2ccc(Cl)cc2)c1[N+]#N
inhibition at 25 µg/mL [17]: 69 to 96%

Ki [18]: 0.8 nM | MIC [19]: 0.5 to 1 µg/mL
SMILES: O=S(=O)(NCB(O)O)c1ccc(-c2nnn[nH]2)nc1

SMILES: O=C(c1cc(Br)ccc1O)c1[nH]c(Br)c(Cl)c1Br
inhibition at 1.5 µg/mL [6]: > 60% | inhibition at 1.5 µg/mL [7]: > 60% | inhibition at 1.5 µg/mL [8]: > 60% | inhibition at 1.5 µg/mL [9]: > 60% | inhibition at 1.5 µg/mL [10]: > 60% | inhibition at 1.5 µg/mL [11]: > 60%

SMILES: O=C(c1cc(Br)ccc1O)c1[nH]c(Br)c(Br)c1Br
inhibition at 1.5 µg/mL [6]: > 60% | inhibition at 1.5 µg/mL [7]: > 60% | inhibition at 1.5 µg/mL [8]: > 60% | inhibition at 1.5 µg/mL [9]: > 60% | inhibition at 1.5 µg/mL [10]: > 60% | inhibition at 1.5 µg/mL [11]: > 60%

SMILES: N=C(N)NCCC[C@H](NC(=O)[C@@H](N)Cc1ccccc1)C(=O)Nc1ccc2ccccc2c1 (H-Phe-Arg-βNA)
MIC [20]: 2 µg/mL | MIC [21]: 2 µg/mL

SMILES: COc1cc(C(=O)O[C@H]2CCC(=O)c3ccccc32)cc(OC)c1OC [4-O-(3,4,5-TRIMETHOXYBENZOYL)-ALPHA-TETRALONE]
MIC [12]: 250 to 1000 µg/mL (≈ 702 to 2810 µM) | MIC [13]: 250 to 1000 µg/mL (≈ 702 to 2810 µM) | MIC [14]: 250 to 1000 µg/mL (≈ 702 to 2810 µM) | MIC [15]: 250 to 1000 µg/mL (≈ 702 to 2810 µM) | MIC [16]: 250 to 1000 µg/mL (≈ 702 to 2810 µM) | fold change (FC) [22]: 8

IC50 [23]: 2.7 to 9 nM
SMILES: O=C(O)[C@@H](Cc1ccc2c(c1)OCO2)[C@H](Cc1ccc2c(c1)OCO2)C(=O)O

IC50 [24]: 200 µM
SMILES: CC(=O)Nc1ccc(S(=O)(=O)Nc2ccccc2NS(=O)(=O)c2ccc(NC(C)=O)cc2)cc1

SMILES: C[C@]1(Cn2ccnn2)[C@H](C(=O)O)N2C(=O)C[C@H]2S1(=O)=O [TAZOBACTAM]
IC50 [24]: 99 µM

SMILES: C/C(=C\c1cccc2ccccc12)Cn1cc(CCCCCc2c[nH]c(N)n2)nn1
IC50 [25]: 9.86 µM | inhibition at 100 µM [26]: > 94%

SMILES: O=C(O[C@H]1CCC(=O)c2ccccc21)c1ccccc1 [4-O-BENZOYL-ALPHA-TETRALONE]
MIC [12]: 250 to 1000 µg/mL (≈ 939 to 3760 µM) | MIC [13]: 250 to 1000 µg/mL (≈ 939 to 3760 µM) | MIC [14]: 250 to 1000 µg/mL (≈ 939 to 3760 µM) | MIC [15]: 250 to 1000 µg/mL (≈ 939 to 3760 µM) | MIC [16]: 250 to 1000 µg/mL (≈ 939 to 3760 µM)

SMILES: CCCCCc1ccc(/C=C(\C)Cn2cc(CCCCCc3c[nH]c(N)n3)nn2)cc1
inhibition at 100 µM [26]: > 94%

MIC [27]: 2 µg/mL | MIC [28]: 4 µg/mL | MIC [29]: > 32 µg/mL | MIC [30]: > 32 µg/mL
SMILES: CC(C)(C)OC(=O)NCC(NC(=O)C(=O)c1c[nH]c2ccccc12)c1c[nH]c2ccccc12 (stereo not drawn)
